Experimental data: article PMC9147192, “Small Molecule Arranged Thermal Proximity Coaggregation (smarTPCA)—A Novel Approach to Characterize Protein–Protein Interactions in Living Cells by Similar Isothermal Dose–Responses” (International Journal of Molecular Sciences, 2022)

Legend:
Assay in all cases: TPP-CCR in living HL-60 cells
Assay type in all cases: cell-based
[1] = target: T1, MIA3 (Homo sapiens, UniProt Q5JRA6)
T1 construct: endogenous in cells; host or cells: HL-60 (ATCC CCL-240)
Text: (§1) Therefore, we performed TPP with compound concentration range (TPP-CCR) experiments according to published procedures. In brief, after preparing tryptic peptides from the non-denatured protein fractions (used for immunoblotting in the previous sections) applying the SP3 method, the peptides were labeled using TMT10plex, coding for inhibitor concentration, and the samples belonging to a TMT set were combined, offline high-pH fractionated, and analyzed by MS.
(§2) HL-60 cells were expanded as described above for CETSA and TPP-TR to 1.25 million cells per milliliter. […] A number of 2.5 million cells in 2 mL of medium were added to each tube and incubated (1 h, 37 °C). After centrifugation (300 rcf, 3 min, r.t.) and removing all of the supernating culture medium, the cells were washed once with 2 mL and once with 0.5 mL PBS (r.t.) by gently resuspending the cells, followed by centrifugation (300 rcf, 3 min, r.t.) and the complete removal of the supernatants.
(§3) After transferring the cells from the 2 mL Eppendorf tubes into correspondingly labeled PCR tubes (tube strips) using 100 µL of ice-cold PBS supplemented with protease inhibitors for resuspending the cells, the samples were further processed as described above for CETSA and TPP-TR, however, by applying a single treatment temperature of 51 °C.
(§4) For each sample set comprising ten compound concentration range samples, a same volume of the cell extracts containing the fraction of soluble, non-denatured proteins, corresponding to an average of 5 µg total protein, was used for further analysis. The calculated volume was respectively transferred into PCR tubes of a tube strip and supplemented with SDS sample buffer without DTT and bromophenol blue (final concentrations: 7.5% glycerol, 3% SDS, 37.5 mM Tris/HCl pH 7.0) and ddH2O to a final volume of 10 µL, respectively. Reduction and alkylation were performed by addition of 2.5 µL 100 mM dithiothreitol (DTT; incubation: 20 min, 56 °C, 1000 rpm in an Eppendorf ThermoMixer C, covering the tubes with aluminum foil to minimize condensation in the lids) and 3.33 µL 300 mM iodoacetamide (IAA; incubation: 15 min, r.t., in the dark without shaking), as well as 2.5 µL 100 mM DTT (incubation: 15 min, r.t., without shaking; quenching of excess of IAA). […] The beads were collected and washed (3× 200 µL 80% ethanol p.a. in HPLC-MS grade water, 1 × 200 µL acetonitrile (ACN; HPLC gradient grade)) using a device for handling of magnetic particles [patent US20100200405A1]. The ACN of the last washing step was completely removed by aspiration without letting the beads dry out.
(§5) Tryptic digest was performed on-bead by resuspending (use of an ultrasound bath may be required) the beads in 20 µL 50 mM TEAB in HPLC-MS grade water containing 0.1 µg Trypsin/Lys-C mix and 16.5 h incubation at 37 °C and 1000 rpm (Eppendorf ThermoMixer C, covering the tubes with aluminum foil to minimize condensation in the lids). Tryptic fragmentation of proteins was optimized by addition of another 0.1 µg of Trypsin/Lys-C mix in 2 µL 50 mM TEAB and 4 h incubation at 37 °C and 1000 rpm. After centrifugation for about 1 min in a table top centrifuge and magnetic concentration and retention of the beads at the inner tube wall, the supernatants containing the peptides were transferred into new PCR tubes (of tube strips) and were stored at −80 °C. The beads were discarded.
(§6) Half of the peptide samples (11 µL containing about 2.5 µg peptides) were transferred into new PCR tubes (of tube strips) and allowed to equilibrate to r.t. TMT labeling reagents were reconstituted as described for the TPP-TR samples, and 1 µL each was added to the reconstituted peptides according to the following scheme and homogenized immediately by aspiration and dispensing:
(§7) Peptide separation was performed as described above for the analysis of TPP-TR samples. […]

[2] = target: T2, UBE2O (Homo sapiens, UniProt Q9C0C9)
T2 construct: endogenous in cells; host or cells: HL-60 (ATCC CCL-240)
T2 sequence (Q9C0C9 1-1292): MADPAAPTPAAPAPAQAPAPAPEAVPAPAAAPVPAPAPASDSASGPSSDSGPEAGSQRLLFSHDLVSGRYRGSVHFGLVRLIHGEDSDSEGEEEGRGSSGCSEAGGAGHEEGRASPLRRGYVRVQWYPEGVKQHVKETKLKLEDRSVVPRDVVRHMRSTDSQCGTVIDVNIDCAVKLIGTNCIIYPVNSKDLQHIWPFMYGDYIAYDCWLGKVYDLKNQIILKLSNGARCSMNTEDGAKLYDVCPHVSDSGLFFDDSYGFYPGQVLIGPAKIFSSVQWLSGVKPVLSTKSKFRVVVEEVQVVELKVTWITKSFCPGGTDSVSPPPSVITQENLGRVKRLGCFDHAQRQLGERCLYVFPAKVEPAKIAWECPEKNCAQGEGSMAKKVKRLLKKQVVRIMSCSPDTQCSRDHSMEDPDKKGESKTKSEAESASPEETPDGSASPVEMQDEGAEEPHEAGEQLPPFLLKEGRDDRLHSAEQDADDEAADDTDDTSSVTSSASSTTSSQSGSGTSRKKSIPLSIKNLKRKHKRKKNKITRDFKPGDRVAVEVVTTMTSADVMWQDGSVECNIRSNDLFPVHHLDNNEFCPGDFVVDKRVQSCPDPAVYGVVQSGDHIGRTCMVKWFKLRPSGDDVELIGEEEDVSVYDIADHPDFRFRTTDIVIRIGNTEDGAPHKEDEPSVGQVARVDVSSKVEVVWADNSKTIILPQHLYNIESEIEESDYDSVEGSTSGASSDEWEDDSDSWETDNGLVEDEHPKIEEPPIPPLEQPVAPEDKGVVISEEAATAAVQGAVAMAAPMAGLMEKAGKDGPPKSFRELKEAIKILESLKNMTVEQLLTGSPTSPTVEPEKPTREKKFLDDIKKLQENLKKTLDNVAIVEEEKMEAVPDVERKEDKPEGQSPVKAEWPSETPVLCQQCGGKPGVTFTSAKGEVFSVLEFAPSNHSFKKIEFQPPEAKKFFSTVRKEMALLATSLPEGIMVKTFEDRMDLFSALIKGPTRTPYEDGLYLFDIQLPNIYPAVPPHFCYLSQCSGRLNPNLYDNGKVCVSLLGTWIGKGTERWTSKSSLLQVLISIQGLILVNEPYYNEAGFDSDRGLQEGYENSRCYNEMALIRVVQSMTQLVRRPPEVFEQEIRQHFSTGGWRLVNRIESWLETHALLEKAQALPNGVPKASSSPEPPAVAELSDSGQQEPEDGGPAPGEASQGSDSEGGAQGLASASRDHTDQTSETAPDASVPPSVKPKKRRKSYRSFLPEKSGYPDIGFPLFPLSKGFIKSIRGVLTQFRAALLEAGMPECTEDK
Text: as §1, §2, §3, §4, §5, §6, §7

[3] = target: T3, UGGT1 (Homo sapiens, UniProt Q9NYU2)
T3 construct: endogenous in cells; host or cells: HL-60 (ATCC CCL-240)
Text: as §1, §2, §3, §4, §5, §6, §7

[4] = living HL-60 cells, […] °C, TMT-MS

T1 sequence (Q5JRA6 23-1907): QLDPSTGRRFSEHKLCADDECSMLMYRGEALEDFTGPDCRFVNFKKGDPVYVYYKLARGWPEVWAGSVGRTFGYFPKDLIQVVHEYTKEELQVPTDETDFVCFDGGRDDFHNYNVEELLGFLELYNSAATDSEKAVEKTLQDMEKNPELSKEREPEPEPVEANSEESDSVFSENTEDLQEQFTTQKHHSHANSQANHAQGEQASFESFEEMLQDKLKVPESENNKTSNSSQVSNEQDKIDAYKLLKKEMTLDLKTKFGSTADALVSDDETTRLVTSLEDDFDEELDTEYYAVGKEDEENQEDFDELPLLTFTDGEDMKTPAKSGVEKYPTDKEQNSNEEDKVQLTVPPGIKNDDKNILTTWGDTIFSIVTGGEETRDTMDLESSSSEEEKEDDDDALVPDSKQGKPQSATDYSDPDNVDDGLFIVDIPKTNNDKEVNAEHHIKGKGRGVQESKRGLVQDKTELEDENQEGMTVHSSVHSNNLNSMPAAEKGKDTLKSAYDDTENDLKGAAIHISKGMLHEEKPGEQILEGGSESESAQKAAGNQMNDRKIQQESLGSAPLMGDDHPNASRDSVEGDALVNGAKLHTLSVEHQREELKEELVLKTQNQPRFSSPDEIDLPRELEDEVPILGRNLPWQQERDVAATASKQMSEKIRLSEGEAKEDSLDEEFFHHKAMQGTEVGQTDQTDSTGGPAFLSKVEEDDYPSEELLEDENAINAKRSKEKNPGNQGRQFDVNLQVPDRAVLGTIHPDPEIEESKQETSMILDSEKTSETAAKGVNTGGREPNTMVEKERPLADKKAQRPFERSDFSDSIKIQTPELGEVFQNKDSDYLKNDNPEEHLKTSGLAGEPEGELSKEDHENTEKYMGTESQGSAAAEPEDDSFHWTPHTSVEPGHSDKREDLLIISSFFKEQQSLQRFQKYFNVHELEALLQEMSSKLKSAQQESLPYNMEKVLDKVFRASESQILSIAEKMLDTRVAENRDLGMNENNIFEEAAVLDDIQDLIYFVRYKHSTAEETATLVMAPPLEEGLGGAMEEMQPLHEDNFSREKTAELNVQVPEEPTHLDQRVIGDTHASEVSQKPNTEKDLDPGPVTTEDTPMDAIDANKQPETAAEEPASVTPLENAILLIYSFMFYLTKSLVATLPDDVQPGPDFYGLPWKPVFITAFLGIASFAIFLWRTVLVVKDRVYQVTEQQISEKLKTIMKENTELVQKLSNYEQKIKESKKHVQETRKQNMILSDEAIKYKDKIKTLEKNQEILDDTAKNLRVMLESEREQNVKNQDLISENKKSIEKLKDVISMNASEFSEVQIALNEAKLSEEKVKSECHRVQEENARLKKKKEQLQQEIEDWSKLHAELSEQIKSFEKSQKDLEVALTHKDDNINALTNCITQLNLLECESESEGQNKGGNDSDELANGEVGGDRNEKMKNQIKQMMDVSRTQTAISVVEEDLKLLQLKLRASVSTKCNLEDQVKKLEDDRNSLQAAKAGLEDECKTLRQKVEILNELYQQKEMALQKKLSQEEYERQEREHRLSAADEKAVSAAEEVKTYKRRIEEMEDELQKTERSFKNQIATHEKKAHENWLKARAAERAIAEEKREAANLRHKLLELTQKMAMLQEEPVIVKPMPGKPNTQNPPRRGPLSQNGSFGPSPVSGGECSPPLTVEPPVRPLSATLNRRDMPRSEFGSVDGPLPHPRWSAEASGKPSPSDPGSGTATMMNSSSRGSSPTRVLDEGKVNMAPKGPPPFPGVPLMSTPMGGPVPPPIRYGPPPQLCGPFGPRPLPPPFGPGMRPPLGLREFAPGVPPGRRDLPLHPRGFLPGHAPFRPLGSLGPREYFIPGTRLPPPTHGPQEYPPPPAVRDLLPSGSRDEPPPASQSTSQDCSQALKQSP
T3 sequence (Q9NYU2 43-1555): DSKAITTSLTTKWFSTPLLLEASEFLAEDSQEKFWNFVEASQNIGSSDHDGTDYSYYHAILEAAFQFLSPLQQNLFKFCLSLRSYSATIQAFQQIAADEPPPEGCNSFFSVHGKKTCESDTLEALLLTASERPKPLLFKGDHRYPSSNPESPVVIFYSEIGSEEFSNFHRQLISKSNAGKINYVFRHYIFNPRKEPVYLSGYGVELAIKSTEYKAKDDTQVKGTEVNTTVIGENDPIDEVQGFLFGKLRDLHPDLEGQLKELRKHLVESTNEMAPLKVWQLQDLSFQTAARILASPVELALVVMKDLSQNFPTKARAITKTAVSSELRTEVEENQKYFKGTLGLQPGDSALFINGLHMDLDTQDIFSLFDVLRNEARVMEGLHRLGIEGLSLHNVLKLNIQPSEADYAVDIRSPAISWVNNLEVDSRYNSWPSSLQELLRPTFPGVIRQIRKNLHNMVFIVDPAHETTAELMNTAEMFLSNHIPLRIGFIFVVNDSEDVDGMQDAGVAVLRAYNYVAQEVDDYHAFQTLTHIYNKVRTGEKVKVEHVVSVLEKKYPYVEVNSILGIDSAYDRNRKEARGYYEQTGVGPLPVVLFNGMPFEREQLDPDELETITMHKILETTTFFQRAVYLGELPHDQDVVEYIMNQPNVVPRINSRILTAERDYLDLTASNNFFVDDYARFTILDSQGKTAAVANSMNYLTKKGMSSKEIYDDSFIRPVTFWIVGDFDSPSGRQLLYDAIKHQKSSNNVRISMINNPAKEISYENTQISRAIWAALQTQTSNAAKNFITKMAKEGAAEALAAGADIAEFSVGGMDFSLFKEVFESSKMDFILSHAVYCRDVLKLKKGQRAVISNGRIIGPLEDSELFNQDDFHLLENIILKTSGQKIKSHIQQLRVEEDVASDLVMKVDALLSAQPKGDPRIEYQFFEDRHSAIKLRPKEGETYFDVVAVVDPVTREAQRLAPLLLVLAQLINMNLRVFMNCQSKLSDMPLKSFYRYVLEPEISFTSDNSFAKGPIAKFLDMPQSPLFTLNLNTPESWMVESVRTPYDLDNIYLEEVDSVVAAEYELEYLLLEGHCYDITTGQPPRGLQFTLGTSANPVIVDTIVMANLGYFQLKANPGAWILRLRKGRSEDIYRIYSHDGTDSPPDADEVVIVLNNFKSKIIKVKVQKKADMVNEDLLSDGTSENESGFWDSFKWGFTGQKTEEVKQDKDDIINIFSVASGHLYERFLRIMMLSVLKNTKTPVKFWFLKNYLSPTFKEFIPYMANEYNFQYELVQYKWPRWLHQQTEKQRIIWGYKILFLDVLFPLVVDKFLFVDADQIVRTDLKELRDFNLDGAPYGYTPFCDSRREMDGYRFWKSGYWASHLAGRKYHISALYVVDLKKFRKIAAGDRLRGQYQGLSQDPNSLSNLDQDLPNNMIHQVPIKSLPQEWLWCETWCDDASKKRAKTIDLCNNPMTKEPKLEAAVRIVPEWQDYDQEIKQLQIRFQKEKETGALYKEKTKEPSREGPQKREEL

SMILES: Cc1cnc(Nc2ccc(F)cc2Cl)nc1-c1c[nH]c(C(=O)N[C@H](CO)c2cccc(Cl)c2)c1 [ERK 11e]
- Hill slope ([1]; TPP-CCR, living cells, MIA3): 0.98
- Hill slope (MIA3) [1, 4]: 0.98
- EC50 ([1]; living HL-60 cells, […] °C, TMT-MS, read-out: pEC50 (MIA3) (converted)): 3.39 µM
- Hill slope ([2]; TPP-CCR, living cells, UBE2O): 0.37
- Hill slope (UBE2O) [2, 4]: 0.37
- EC50 ([2]; living HL-60 cells, […] °C, TMT-MS, read-out: pEC50 (UBE2O) (converted)): 0.186 µM
- Hill slope ([3]; TPP-CCR, living cells, UGGT1): 1.97
- Hill slope (UGGT1) [3, 4]: 1.97
- EC50 ([3]; living HL-60 cells, […] °C, TMT-MS, read-out: pEC50 (UGGT1) (converted)): 5.37 µM
